Test: UV-vis absorption spectra in buffered water (λmax, molar absorption coefficient)
Type: physicochemical
Conditions: for λmax (Z-P) / ε (Z-P): Z conjugate base; for λmax (Z-P) / λmax (E-P) / λmax (E-PH^+) / λmax (Z-PH^+): maximum of the longest-wavelength absorption band; for λmax (Z-P) / ε (Z-P) / λmax (E-P) / ε (E-P) / λmax (E-PH^+) / λmax (Z-PH^+) / ε (E-PH^+) / ε (Z-PH^+): water; for ε (Z-P) / ε (E-P): molar absorption coefficient; for ε (Z-P) / ε (E-P) / ε (E-PH^+) / ε (Z-PH^+): error ± 5%; for λmax (E-P) / ε (E-P): conjugate base; for ε (E-PH^+) / ε (Z-PH^+): molar absorption coefficient at λmax; for ε of the acidic form from absorbance vs concentration: P bH·Cl pH 5, 378 nm, P cH·Cl pH 6, 350 nm, P dH·Cl pH 6, 411 nm; for ε of the basic form from absorbance vs concentration: P bH·Cl pH 12, 456 nm, P cH·Cl pH 12, 433 nm, P dH·Cl pH 13, 500 nm
Excerpt: With the photovermellogens synthesized and fully characterized, their acid–base properties were next investigated by UV–vis spectroscopy to determine whether the pH-responsiveness characteristic of parent vermellogens was retained. Indeed, P a–dH·Cl reproduced the archetypical absorption changes of vermellogens (Figures c and S130–S137, SI1). , In essence, the characteristic intense π–π* absorption bands of the cations undergo a considerable bathochromic shift upon deprotonation (Table ), as also confirmed by our quantum chemical calculations (Figure S2, S2), causing a notable color change from yellow to red. This pronounced shift allowed the estimation of pK a values for E-P a–dH^+ via UV–vis absorption titrations, which, as for other vermellogens, fall within the biologically relevant pH range (Figure c, Table and Figures S130–S137, SI1). Changes in the protonation state were also easily monitored by ^1H NMR spectroscopy, with the gain in electronic density translating in a substantial shielding of resonances of the corresponding conjugate bases E/Z-P a–d (Figure a). As already observed for E-P a–dH^+, the deprotonated species were also thermally stable in the absence of light.
Having confirmed the photochemical behavior of the protonated forms, we next explored their light-responsiveness in the deprotonated state. […] To probe whether Z-P a–c could nonetheless be generated indirectly, we explored a consecutive photoisomerization–deprotonation sequence. Thus, E-P a–cH^+ was first irradiated at 254 nm and pH 6 to enrich the Z population, followed by immediate adjustment of the solution to pH 13. Under these conditions, transient spectroscopic features were observed, consistent with the kinetic trapping of the metastable Z-P a–c species. […] These spectroscopic observations enabled the estimation of virtual pK a values for the Z-enriched solutions (Table and Figures S163–168, SI1), which confirmed the reduced acidity of the NH group in the Z-isomers, presumably arising from intramolecular hydrogen-bond formation.
Figure S132. UV-Vis spectra of P bH·Cl at pH 5 (black) and pH 12 (red) at 20 µM. b) Linear relationship at pH 5 between absorbance at 378 nm and concentration of P bH·Cl (ε = 42265 ± 838 L·mol -1·cm-1). c) Linear relationship at pH 12 between absorbance at 456 nm and concentration of P bH·Cl (ε = 42143 ± 1044 L·mol -1·cm-1).
Figure S133. UV-Vis spectra for the titration of P bH·Cl (20 μM in phosphate buffer solutions in the 4.1-10.6 pH range). b) Absorption of P bH+ at λ = 378 nm plotted against pH. c) Linear fitting […]
Figure S134. UV-Vis spectra of P cH·Cl at pH 6 (black) and pH 12 (red) at 14 µM. b) Linear relationship at pH 6 between absorbance at 350 nm and concentration of P cH·Cl (ε = 49266 ± 1780 L·mol-1·cm-1). c) Linear relationship at pH 12 between absorbance at 433 nm and concentration of P cH·Cl (ε = 46382 ± 1667 L·mol -1·cm-1).
Figure S135.UV-Vis spectra for the titration of P cH·Cl, (14 μM in phosphate buffer solutions in the 5.1-11.7 pH range). b) Absorption of P cH+ at λ = 351 nm plotted against pH. c) Linear fitting […]
Figure S136. UV-Vis spectra of P dH·Cl at pH 6 (red) and pH 13 (black) at 11 µM. b) Linear relationship at pH 6 between absorbance at 411 nm and concentration of P dH·Cl (ε = 65691 ± 2966 L·mol-1·cm-1). c) Linear relationship at pH 13 between absorbance at 500 nm and concentration of P dH·Cl (ε = 69154 ± 3100 L·mol -1·cm-1).
Figure S137. UV-Vis spectra for the titration of P dH·Cl (11 μM in phosphate buffer solutions in the 5.1-11.7 pH range). b) Absorption of P dH+ at λ = 410 nm plotted against pH. c) Linear fitting

Compound | λmax (Z-P) [nm] | ε (Z-P) | λmax (E-P) [nm] | ε (E-P) | λmax (E-PH^+) [nm] | λmax (Z-PH^+) [nm] | ε (E-PH^+) | ε (Z-PH^+) | ε of the acidic form from absorbance vs concentration [L/mol/cm] | ε of the basic form from absorbance vs concentration [L/mol/cm]
C[n+]1ccc(NN=CC(=O)c2ccccc2)cc1 [P aH^+] | 420 | 18,000 M^–1·cm^–1 | 429 | 39,000 M^–1·cm^–1 | 342 | 352 | 41,000 M^–1·cm^–1 | 43,000 M^–1·cm^–1 | – | –
C[n+]1ccc(NN=CC(=O)c2ccccc2)c2ccccc21 [P bH^+] | 445 | 13,000 M^–1·cm^–1 | 456 | 42,000 M^–1·cm^–1 | 378 | 384 | 42,000 M^–1·cm^–1 | 36000 M^–1·cm^–1 | 42265 ± 838 | 42143 ± 1044
O=C(C=NNc1cc[n+](-c2ccccc2)cc1)c1ccccc1 [P cH^+] | 420 | 15,000 M^–1·cm^–1 | 432 | 46,000 M^–1·cm^–1 | 349 | 359 | 49,000 M^–1·cm^–1 | 43,000 M^–1·cm^–1 | 49266 ± 1780 | 46382 ± 1667
C[n+]1ccc(-c2ccc(NN=CC(=O)c3ccccc3)cc2)cc1 [P dH^+] | – | – | 500 | 69,000 M^–1·cm^–1 | 411 | – | 66,000 M^–1·cm^–1 | – | 65691 ± 2966 | 69154 ± 3100

Source: publication PMC13185115, “Photovermellogens: Minimalistic Pyridinium-Based Acylhydrazones with Photoswitchable Basicity for Operation in Aqueous Media” (The Journal of Organic Chemistry, 2026)
